Test results published in patent US10653698B2, “Methods of improving myocardial performance in Fontan patients using udenafil compositions” (priority 2014, dated 2020).

Tests used:
[1] = cited from earlier work
[2] = system: adolescents with single ventricle physiology after Fontan palliation; test: Vascular function testing (EndoPAT pulse amplitude tonometry, lnRHI and other EndoPAT indices); type: in vivo, human; conditions: for Natural Log of Reactive Hyperemia Index, Baseline measurement: day 1; for Natural Log of Reactive Hyperemia Index, Follow-up measurement: post-medication, day 5
Source text: Pulse amplitude tonometry (PAT), a FDA-approved method for assessing vascular function, is increasingly being used as an alternative measure of endothelium-dependent dilation in response to reactive hyperemia and flow-mediated dilation (FMD). The PAT device records digital pulse wave amplitude (PWA) using fingertip plethysmography. PWA can be measured continuously during three phases: a quiet baseline period, 5-min forearm occlusion, and reactive hyperemia following cuff release. Unlike FMD, PAT testing is not dependent upon a highly skilled technician and post-test analysis is largely automated. Most importantly, at least one longitudinal study has shown that PAT measures of endothelial function predict CVD events over a 6-year follow-up period. These significant advantages may make PAT testing suitable for clinical practice if prognostic significance and reliability can be verified.
The primary outcome of vascular function was determined according to an endothelial pulse amplitude tonometry (PAT) index as determined by the EndoPAT® device (Itamar Medical, Caesarea, Israel).
Table 16 summarizes the results for the key outcome from the vascular function testing—natural log of Reactive Hyperemia Index (lnRHI) by treatment group. Out of the 30 subjects enrolled in the treatment arms of the trial, 27 subjects had paired measurements with an acceptable quality (with QC score equal to 3 (the best) or 2). The structure of the table is similar to the one for exercise variables.
Table 17 reports change scores only for secondary EndoPAT outcomes (RHI, Framingham RHI etc; top panel) and other EndoPAT indices.

## CCCOc1ccc(S(=O)(=O)NCCC2CCCN2C)cc1-c1nc2c(CCC)nn(C)c2c(=O)[nH]1 (centres unmarked) [udenafil]
[1]; in vivo
  T1/2: 11 to 13 h
  Tmax: 1.0 to 1.5 h
  half-life: 7.3 to 12.1 h
[1]; multiple dosing, previous studies
  time to steady state: 5 days
[2]; 37.5 mg daily
  Natural Log of Reactive Hyperemia Index, Difference, FU − BL: 0.03 ± 0.47
  Natural Log of Reactive Hyperemia Index, Baseline measurement: 0.48 ± 0.31
  Natural Log of Reactive Hyperemia Index, Follow-up measurement: 0.51 ± 0.26
[2]; 37.5 mg daily, N 6
  AUC2max_o: Area under the curve to Max-Occlusion (ratio to baseline), FU − BL: −0.23 ± 2.74
  AUC2max_oc: Area under the curve to Max-Occlusion/Control, FU − BL: −0.93 ± 4.37
  AUCall_o: Area under the curve all-Occlusion (ratio to baseline), FU − BL: −0.01 ± 2.73
  AUCall_oc: Area under the curve all-Occlusion/Control, FU − BL: −1.34 ± 6.42
  Avg2Max_o: average upto max-Occlusion (ratio to baseline), FU − BL: −0.12 ± 0.28
  Avg2Max_oc: average up to max-Occlusion/Control, FU − BL: −0.35 ± 1.01
  Avgall_o: average all-Occlusion (ratio to baseline), FU − BL: 0.02 ± 0.27
  Avgall_oc: average all -Occlusion/Control, FU − BL: −0.10 ± 0.66
  Framingham RHI, FU − BL: −0.00 ± 0.58
  Reactive Hyperemia Index, FU − BL: 0.03 ± 0.84
[2]; 37.5 mg twice daily
  Natural Log of Reactive Hyperemia Index, Difference, FU − BL: −0.07 ± 0.17
  Natural Log of Reactive Hyperemia Index, Baseline measurement: 0.60 ± 0.30
  Natural Log of Reactive Hyperemia Index, Follow-up measurement: 0.53 ± 0.29
[2]; 37.5 mg twice daily, N 6
  AUC2max_o: Area under the curve to Max-Occlusion (ratio to baseline), FU − BL: 0.09 ± 1.45
  AUC2max_oc: Area under the curve to Max-Occlusion/Control, FU − BL: −1.19 ± 1.84
  AUCall_o: Area under the curve all-Occlusion (ratio to baseline), FU − BL: −0.69 ± 2.17
  AUCall_oc: Area under the curve all-Occlusion/Control, FU − BL: −1.19 ± 2.00
  Avg2Max_o: average upto max-Occlusion (ratio to baseline), FU − BL: 0.15 ± 0.19
  Avg2Max_oc: average up to max-Occlusion/Control, FU − BL: −0.33 ± 0.26
  Avgall_o: average all-Occlusion (ratio to baseline), FU − BL: −0.08 ± 0.24
  Avgall_oc: average all -Occlusion/Control, FU − BL: −0.13 ± 0.22
  Framingham RHI, FU − BL: −0.17 ± 0.19
  Reactive Hyperemia Index, FU − BL: −0.12 ± 0.30
[2]; 87.5 mg daily
  Natural Log of Reactive Hyperemia Index, Difference, FU − BL: 0.07 ± 0.22
  Natural Log of Reactive Hyperemia Index, Baseline measurement: 0.41 ± 0.25
  Natural Log of Reactive Hyperemia Index, Follow-up measurement: 0.45 ± 0.31
[2]; 87.5 mg daily, N 5
  AUC2max_o: Area under the curve to Max-Occlusion (ratio to baseline), FU − BL: −1.26 ± 4.89
  AUC2max_oc: Area under the curve to Max-Occlusion/Control, FU − BL: 3.03 ± 2.49
  AUCall_o: Area under the curve all-Occlusion (ratio to baseline), FU − BL: 1.66 ± 5.96
  AUCall_oc: Area under the curve all-Occlusion/Control, FU − BL: 1.88 ± 3.25
  Avg2Max_o: average upto max-Occlusion (ratio to baseline), FU − BL: 0.10 ± 0.69
  Avg2Max_oc: average up to max-Occlusion/Control, FU − BL: 0.17 ± 0.43
  Avgall_o: average all-Occlusion (ratio to baseline), FU − BL: 0.14 ± 0.67
  Avgall_oc: average all -Occlusion/Control, FU − BL: 0.16 ± 0.36
  Framingham RHI, FU − BL: 0.04 ± 0.36
  Reactive Hyperemia Index, FU − BL: 0.12 ± 0.34
[2]; 87.5 mg twice daily
  Natural Log of Reactive Hyperemia Index, Difference, FU − BL: −0.03 ± 0.20
  Natural Log of Reactive Hyperemia Index, Baseline measurement: 0.49 ± 0.12
  Natural Log of Reactive Hyperemia Index, Follow-up measurement: 0.40 ± 0.29
[2]; 87.5 mg twice daily, N 4
  AUC2max_o: Area under the curve to Max-Occlusion (ratio to baseline), FU − BL: −0.51 ± 1.64
  AUC2max_oc: Area under the curve to Max-Occlusion/Control, FU − BL: 0.16 ± 1.08
  AUCall_o: Area under the curve all-Occlusion (ratio to baseline), FU − BL: 0.60 ± 2.95
  AUCall_oc: Area under the curve all-Occlusion/Control, FU − BL: 0.17 ± 4.30
  Avg2Max_o: average upto max-Occlusion (ratio to baseline), FU − BL: 0.03 ± 0.36
  Avg2Max_oc: average up to max-Occlusion/Control, FU − BL: 0.24 ± 0.23
  Avgall_o: average all-Occlusion (ratio to baseline), FU − BL: 0.09 ± 0.33
  Avgall_oc: average all -Occlusion/Control, FU − BL: 0.05 ± 0.45
  Framingham RHI, FU − BL: 0.00 ± 0.20
  Reactive Hyperemia Index, FU − BL: 0.01 ± 0.38
[2]; 125 mg daily
  Natural Log of Reactive Hyperemia Index, Difference, FU − BL: −0.10 ± 0.38
  Natural Log of Reactive Hyperemia Index, Baseline measurement: 0.63 ± 0.37
  Natural Log of Reactive Hyperemia Index, Follow-up measurement: 0.52 ± 0.34
[2]; 125 mg daily, N 6
  AUC2max_o: Area under the curve to Max-Occlusion (ratio to baseline), FU − BL: 0.37 ± 2.71
  AUC2max_oc: Area under the curve to Max-Occlusion/Control, FU − BL: 1.80 ± 1.18
  AUCall_o: Area under the curve all-Occlusion (ratio to baseline), FU − BL: −0.28 ± 3.98
  AUCall_oc: Area under the curve all-Occlusion/Control, FU − BL: −1.84 ± 7.21
  Avg2Max_o: average upto max-Occlusion (ratio to baseline), FU − BL: 0.07 ± 0.86
  Avg2Max_oc: average up to max-Occlusion/Control, FU − BL: −0.32 ± 1.28
  Avgall_o: average all-Occlusion (ratio to baseline), FU − BL: −0.03 ± 0.49
  Avgall_oc: average all -Occlusion/Control, FU − BL: −0.20 ± 0.84
  Framingham RHI, FU − BL: −0.13 ± 0.51
  Reactive Hyperemia Index, FU − BL: −0.21 ± 0.78
[2]; All subjects (treatment arms)
  Natural Log of Reactive Hyperemia Index, Difference, FU − BL: −0.02 ± 0.30
  Natural Log of Reactive Hyperemia Index, Baseline measurement: 0.52 ± 0.28
  Natural Log of Reactive Hyperemia Index, Follow-up measurement: 0.49 ± 0.28
[2]; All subjects, N 27
  AUC2max_o: Area under the curve to Max-Occlusion (ratio to baseline), FU − BL: −0.26 ± 2.75
  AUC2max_oc: Area under the curve to Max-Occlusion/Control, FU − BL: 0.51 ± 2.91
  AUCall_o: Area under the curve all-Occlusion (ratio to baseline), FU − BL: 0.18 ± 3.54
  AUCall_oc: Area under the curve all-Occlusion/Control, FU − BL: −0.60 ± 4.93
  Avg2Max_o: average upto max-Occlusion (ratio to baseline), FU − BL: 0.04 ± 0.51
  Avg2Max_oc: average up to max-Occlusion/Control, FU − BL: −0.16 ± 0.79
  Avgall_o: average all-Occlusion (ratio to baseline), FU − BL: 0.02 ± 0.40
  Avgall_oc: average all -Occlusion/Control, FU − BL: −0.06 ± 0.54
  Framingham RHI, FU − BL: −0.06 ± 0.39
  Reactive Hyperemia Index, FU − BL: −0.04 ± 0.56
[2]; some patients, baseline to day 5
  Improvement in natural log of Reactive Hyperemia Index: ≤ 9.75%
